According to patent US10696703B2, “Method for producing eushearlilides” (TOKYO UNIVERSITY OF SCIENCE FOUNDATION, priority 2014, dated 2020):

Columns and labels:
Type in all cases: cell-based
[1] = tested on: Staphylococcus aureus NBRC 12732; assay: MIC measurement by CLSI disk method, Staphylococcus aureus NBRC 12732; settings: for Inhibition zone: at the MIC amount per disk, mean of longest and shortest lengths of area without growth; for MIC concentration: disk method, Mueller-Hinton II agar, 36 ± 1° C., 18 to 24 hours
Description: (§1) The followings were used as test microorganisms: Staphylococcus aureus NBRC 12732, Aspergillus niger NBRC 105649, and Trichophyton mentagrophytes NBRC 5466. Measurements were performed in accordance with the disk method as defined by CLSI (Clinical and Laboratory Standards Institute). A cryopreserved strain was applied onto a test-bacterium preculture medium, and precultured under predetermined conditions. A grown colony was suspended in a test-bacterium culture medium, and cultured under predetermined conditions, and then added to a test-bacterium preparation liquid to adjust the number of cells to about 107-8 CFU/mL. Further, the prepared test-bacterium liquid was subjected to 10-times serial dilution, and cultured under predetermined conditions, and the number of cells was then counted. [table] Each compound was dissolved in methanol to 1,000 μg/mL, which was used as a sample stock solution. Otsuka distilled water in an amount of 0.75 mL was added to 0.75 mL of the sample stock solution to give a volume of 500 μg/mL. This two-fold dilution was repeated in a similar way. A total of 10 test-substance dilution series was prepared so that the concentrations of the test substance were each 1000, 500, 250, 125, 63, 31, 16, 8, 4, and 2 μg/mL. A test-bacterium liquid was uniformly spread over a corresponding sensitivity measurement agar medium in a square petri dish using a swab, and disks were placed on the medium. At this time, the distance between disks was set to 24 mm or more. A test-substance diluted liquid in an amount of 50 μL was dropped on a disk. The amount of a test substance per disk was 50, 25, 12.5, 6.3, 3.1, 1.6, 0.8, 0.4, 0.2, or 0.1 μg. Each sensitivity measurement agar medium was cultured under conditions shown in Table 1 above, and the diameter of an inhibition zone where bacterial growth was not observed was measured in mm with calipers. As control, methanol was dropped on a disk instead of a test substance.

[2] = tested on: Aspergillus niger NBRC 105649; assay: MIC measurement by CLSI disk method, Aspergillus niger NBRC 105649; settings: for Inhibition zone: at the MIC amount per disk, mean of longest and shortest lengths of area without growth; for MIC concentration: disk method, Glucose Peptone agar, 27 ± 1° C., one week
Description: as §1

[3] = tested on: Trichophyton mentagrophytes NBRC 5466; assay: MIC measurement by CLSI disk method, Trichophyton mentagrophytes NBRC 5466; settings: for Inhibition zone: at the MIC amount per disk of the same line, mean of longest and shortest lengths of area without growth; for MIC concentration: disk method, Glucose Peptone agar, 27 ± 1° C., one week
Description: as §1

[4] = tested on: Staphylococcus aureus (MRSA) IID1677; assay: MIC measurement by CLSI disk method, MRSA IID 1677; settings: for Inhibition zone: at the MIC amount per disk, mean of longest and shortest lengths of area without growth; for MIC: disk method, bacterial liquid 7.3 × 10^7 CFU/mL, Mueller-Hinton II agar, 35 ± 1° C., 24 h
Description: (§2) The followings were used as test microorganisms: Staphylococcus aureus (MRSA) IID 1677, Staphylococcus aureus (MRSA) ATCC 43300, Enterococcus faecalis (VRE) ATCC 51575, and Enterococcus faecalis ATCC 29212.
(§3) Measurements were performed in accordance with the disk method as defined by CLSI (Clinical and Laboratory Standards Institute).
(§4) A cryopreserved strain was applied onto a test-bacterium culture medium, and precultured under predetermined conditions (Table 3). A grown colony was again precultured (Table 3), and then suspended in a test-bacterium preparation liquid, and filtered through absorbent cotton. The number of cells was then adjusted to about 107-8 CFU/mL. This was used for the tests. Further, the prepared test-bacterium liquid was subjected to 10-times serial dilution, and cultured under predetermined conditions (Table 4), and the number of cells was then counted.
(§5) Each of the compounds according to the present invention was dissolved in methanol (Wako Pure Chemical Industries, Ltd., Special grade, Content: 99.8%) to 1000 µg/mL. This was used as a sample stock solution. Otsuka distilled water in an amount of 0.8 mL was added to 0.8 mL of the sample stock solution such that the concentration of each of the compounds according to the present invention was 500 μg/mL. This two-fold dilution was repeated in a similar way. A total of 10 test-substance dilution series were prepared so that the concentrations of the test substance were each 1000, 500, 250, 125, 63, 31, 16, 8, 4, and 2 μg/mL.
(§6) A test-bacterium liquid was uniformly spread over a sensitivity measurement agar medium in a square petri dish (230×80×14.5 mm, Eiken Chemical Co., Ltd.) using a swab, and φ8-mm thick disks (for antibiotics assay, Advantec Co., Ltd.) were placed on the medium. At this time, the distance between disks was set to 24 mm or more. A test-substance diluted liquid in an amount of 50 μL was dropped on a disk. The amount of a test substance per disk was 50, 25, 12.5, 6.3, 3.1, 1.6, 0.8, 0.4, 0.2, or 0.1 μg. A sensitivity measurement agar medium was cultured under predetermined conditions (Table 4), and the width of an inhibition zone where bacterial growth was not observed was measured in mm with calipers. As control, methanol was dropped on a disk instead of a test substance.

[5] = tested on: Staphylococcus aureus (MRSA) ATCC43300; assay: MIC measurement by CLSI disk method, MRSA ATCC 43300; settings: for Inhibition zone: at the MIC amount per disk, mean of longest and shortest lengths of area without growth; for MIC: disk method, bacterial liquid 1.0 × 10^8 CFU/mL, Mueller-Hinton II agar, 35 ± 1° C., 24 h
Description: as §2, §3, §4, §5, §6

[6] = tested on: Enterococcus faecalis (VRE) ATCC51575; assay: MIC measurement by CLSI disk method, VRE ATCC 51575; settings: for Inhibition zone: at the MIC amount per disk, mean of longest and shortest lengths of area without growth; for MIC: disk method, bacterial liquid 1.9 × 10^8 CFU/mL, Mueller-Hinton II agar, 35 ± 1° C., 24 h
Description: as §2, §3, §4, §5, §6

[7] = tested on: Enterococcus faecalis ATCC29212; assay: MIC measurement by CLSI disk method, Enterococcus faecalis ATCC 29212; settings: for Inhibition zone: at the MIC amount per disk of the same line, mean of longest and shortest lengths of area without growth; for MIC: disk method, bacterial liquid 9.6 × 10^7 CFU/mL, Mueller-Hinton II agar, 35 ± 1° C., 24 h
Description: as §2, §3, §4, §5, §6

| MIC concentration [1] | MIC concentration [2] | MIC concentration [3] | MIC [4] | MIC [5] | MIC [6] | MIC [7] | SMILES | Inhibition zone [1] | Inhibition zone [2] | Inhibition zone [3] | Inhibition zone [4] | Inhibition zone [5] | Inhibition zone [6] | Inhibition zone [7] |
| --- | --- | --- | --- | --- | --- | --- | --- | --- | --- | --- | --- | --- | --- | --- |
| – | – | – | 50 μg/disk | 50 μg/disk | 50 μg/disk | >50 μg/disk | C[C@@H]1C/C=C/CC/C=C/CCCCCCCCCCCC[C@H](OP(=O)([O-])OCC[N+](C)(C)C)CC(=O)O1 [Compound E, (3S,16E,20E,23R)-(+)-Eushearilide] | – | – | – | 2.2 mm | 3.3 mm | 6.9 mm | 0.0 mm |
| – | – | – | 50 μg/disk | 50 μg/disk | 50 μg/disk | 50 μg/disk | C[C@H]1C/C=C/CC/C=C/CCCCCCCCCCCC[C@@H](OP(=O)([O-])OCC[N+](C)(C)C)CC(=O)O1 [Compound F, (3R,16E,20E,23S)-(−)-Eushearilide] | – | – | – | 3.1 mm | 2.4 mm | 5.8 mm | 7.7 mm |
| – | – | – | 50 μg/disk | 50 μg/disk | 50 μg/disk | 50 μg/disk | C[C@H]1C/C=C/CC/C=C\CCCCCCCCCCCC[C@H](OP(=O)([O-])OCC[N+](C)(C)C)CC(=O)O1 [Compound G, (3S,16Z,20E,23S)-(+)-Eushearilide] | – | – | – | 2.3 mm | 0.9 mm | 6.7 mm | 8.4 mm |
| – | – | – | 50 μg/disk | 50 μg/disk | 50 μg/disk | 50 μg/disk | C[C@H]1C/C=C/CC/C=C\CCCCCCCCCCCC[C@@H](OP(=O)([O-])OCC[N+](C)(C)C)CC(=O)O1 [Compound H, (3R,16Z,20E,23S)-(−)-Eushearilide] | – | – | – | 3.0 mm | 2.7 mm | 5.5 mm | 3.3 mm |

Second part, the compound before the results:

| SMILES | MIC concentration [1] | MIC concentration [2] | MIC concentration [3] | MIC [4] | MIC [5] | MIC [6] | MIC [7] | Inhibition zone [1] | Inhibition zone [2] | Inhibition zone [3] | Inhibition zone [4] | Inhibition zone [5] | Inhibition zone [6] | Inhibition zone [7] |
| --- | --- | --- | --- | --- | --- | --- | --- | --- | --- | --- | --- | --- | --- | --- |
| C[C@@H]1C/C=C/CC/C=C/CCCCCCCCCCCC[C@@H](OP(=O)([O-])OCC[N+](C)(C)C)CC(=O)O1 [Compound A] | 50 μg/disk | 50 μg/disk | 25 μg/disk | – | – | – | – | 2 mm | 3.7 mm | 2.5 mm | – | – | – | – |
| C[C@@H]1C/C=C/CC/C=C\CCCCCCCCCCCC[C@@H](OP(=O)([O-])OCC[N+](C)(C)C)CC(=O)O1 [Compound B] | 50 μg/disk | 50 μg/disk | 12.5 μg/disk | – | – | – | – | 2.2 mm | 3.7 mm | 3.9 mm | – | – | – | – |
| C[C@@H]1C/C=C/CC/C=C\CCCCCCCCCCCC[C@H](OP(=O)([O-])OCC[N+](C)(C)C)CC(=O)O1 [Compound C] | 50 μg/disk | 50 μg/disk | 12.5 μg/disk | – | – | – | – | 1.5 mm | 1 mm | 5.1 mm | – | – | – | – |
| C[C@H]1C/C=C/CC/C=C/CCCCCCCCCCCC[C@H](OP(=O)([O-])OCC[N+](C)(C)C)CC(=O)O1 [Compound D, (3S,16E,20E,23S)-(+)-Eushearilide] | – | – | – | 50 μg/disk | 50 μg/disk | 50 μg/disk | 25 μg/disk | – | – | – | 1.4 mm | 3.0 mm | 4.7 mm | 2.2 mm |
